Columns and labels:
SMMC-7721 [1] = experiment: Cytotoxicity against human SMMC7721 cells incubated for 72 hrs by MTT assay; format: functional, cell-based; conditions: SMMC-7721, 72 h
L02 = experiment: Cytotoxicity against human L02 cells incubated for 72 hrs by MTT assay; format: cell-based; conditions: L02, 72 h
HCT-116 = experiment: Cytotoxicity against human HCT116 cells incubated for 72 hrs by MTT assay; format: functional, cell-based; conditions: HCT-116, 72 h
MCF7 = experiment: Cytotoxicity against human MCF7 cells incubated for 72 hrs by MTT assay; format: functional, cell-based; conditions: MCF7, 72 h
DU-145 = experiment: Cytotoxicity against human DU145 cells incubated for 72 hrs by MTT assay; format: functional, cell-based; conditions: DU-145, 72 h
CCD-18Co = experiment: Cytotoxicity against human CCD-18Co cells incubated for 72 hrs by MTT assay; format: cell-based
MCF-10A = experiment: Cytotoxicity against human MCF10A cells incubated for 72 hrs by MTT assay; format: cell-based
RWPE-1 = experiment: Cytotoxicity against human RWPE1 cells incubated for 72 hrs by MTT assay; format: cell-based; conditions: RWPE-1, 72 h
SMMC-7721 [2] = experiment: Induction of apoptosis in human SMMC7721 cells assessed as live cells at 1 ug/ml incubated for 72 hrs by Annexin V-FITC/PI staining based flow cytometric analysis (reference value: 94.81 to 96.55%); format: functional
SMMC-7721 [3] = experiment: Induction of apoptosis in human SMMC7721 cells assessed as early apoptotic cells at 1 ug/ml incubated for 72 hrs by Annexin V-FITC/PI staining based flow cytometric analysis (reference value: 1.31 to 1.65%); format: functional
SMMC-7721 [4] = experiment: Induction of apoptosis in human SMMC7721 cells assessed as late apoptotic cells at 1 ug/ml incubated for 72 hrs by Annexin V-FITC/PI staining based flow cytometric analysis (reference value: 1.63 to 2.82%); format: functional
SMMC-7721 [5] = experiment: Induction of apoptosis in human SMMC7721 cells assessed as necrotic cells at 1 ug/ml incubated for 72 hrs by Annexin V-FITC/PI staining based flow cytometric analysis (reference value: 0.52 to 0.72%); format: functional
SMMC-7721 [6] = experiment: Induction of apoptosis in human SMMC7721 cells assessed as live cells at 10 ug/ml incubated for 72 hrs by Annexin V-FITC/PI staining based flow cytometric analysis (reference value: 94.81 to 96.55%); format: functional
SMMC-7721 [7] = experiment: Induction of apoptosis in human SMMC7721 cells assessed as early apoptotic cells at 10 ug/ml incubated for 72 hrs by Annexin V-FITC/PI staining based flow cytometric analysis (reference value: 1.31 to 1.65%); format: functional
SMMC-7721 [8] = experiment: Induction of apoptosis in human SMMC7721 cells assessed as late apoptotic cells at 10 ug/ml incubated for 72 hrs by Annexin V-FITC/PI staining based flow cytometric analysis (reference value: 1.63 to 2.82%); format: functional
SMMC-7721 [9] = experiment: Induction of apoptosis in human SMMC7721 cells assessed as necrotic cells at 10 ug/ml incubated for 72 hrs by Annexin V-FITC/PI staining based flow cytometric analysis (reference value: 0.52 to 0.72%); format: functional
SMMC-7721 [10] = experiment: Induction of apoptosis in human SMMC7721 cells assessed as live cells at 50 ug/ml incubated for 72 hrs by Annexin V-FITC/PI staining based flow cytometric analysis (reference value: 94.81 to 96.55%); format: functional
SMMC-7721 [11] = experiment: Induction of apoptosis in human SMMC7721 cells assessed as early apoptotic cells at 50 ug/ml incubated for 72 hrs by Annexin V-FITC/PI staining based flow cytometric analysis (reference value: 1.31 to 1.65%); format: functional
SMMC-7721 [12] = experiment: Induction of apoptosis in human SMMC7721 cells assessed as late apoptotic cells at 50 ug/ml incubated for 72 hrs by Annexin V-FITC/PI staining based flow cytometric analysis (reference value: 1.63 to 2.82%); format: functional
SMMC-7721 [13] = experiment: Induction of apoptosis in human SMMC7721 cells assessed as necrotic cells at 50 ug/ml incubated for 72 hrs by Annexin V-FITC/PI staining based flow cytometric analysis (reference value: 0.52 to 0.72%); format: functional

Row | Structure (SMILES) | IC50 (SMMC-7721 [1]) | IC50 (L02) | also measured
1 | C[C@H]1[C@H](N2CCN(C(=S)SCc3ccccc3)CC2)O[C@@H]2O[C@@]3(C)CC[C@H]4[C@H](C)CC[C@@H]1[C@@]24OO3 | 26 nM | 300 nM | –
2 | Cc1ccc(CSC(=S)N2CCN([C@@H]3O[C@@H]4O[C@@]5(C)CC[C@H]6[C@H](C)CC[C@@H]([C@H]3C)[C@@]46OO5)CC2)cc1 | 10.2 nM | 230 nM | –
3 | C[C@H]1[C@H](N2CCN(C(=S)SCc3ccc4ccccc4c3)CC2)O[C@@H]2O[C@@]3(C)CC[C@H]4[C@H](C)CC[C@@H]1[C@@]24OO3 | 24.3 nM | 160 nM | –
4 | C[C@H]1[C@H](N2CCN(C(=S)SCc3ccc(Br)cc3)CC2)O[C@@H]2O[C@@]3(C)CC[C@H]4[C@H](C)CC[C@@H]1[C@@]24OO3 | 7 nM | 150 nM | –
5 | C[C@H]1[C@H](N2CCN(C(=S)SCc3ccc([N+](=O)[O-])cc3)CC2)O[C@@H]2O[C@@]3(C)CC[C@H]4[C@H](C)CC[C@@H]1[C@@]24OO3 | 16.7 nM | 170 nM | –
6 | C[C@H]1[C@H](N2CCN(C(=S)SCC(=O)OCc3ccccc3)CC2)O[C@@H]2O[C@@]3(C)CC[C@H]4[C@H](C)CC[C@@H]1[C@@]24OO3 | 33.2 nM | 150 nM | –
7 | C[C@H]1[C@H](N2CCN(C(=S)SCc3ccccc3Cl)CC2)O[C@@H]2O[C@@]3(C)CC[C@H]4[C@H](C)CC[C@@H]1[C@@]24OO3 | 23.7 nM | 200 nM | –
8 | CCCCCSC(=S)N1CCN([C@@H]2O[C@@H]3O[C@@]4(C)CC[C@H]5[C@H](C)CC[C@@H]([C@H]2C)[C@@]35OO4)CC1 | 37.1 nM | 180 nM | –
9 | C[C@H]1[C@H](N2CCN(C(=S)SCc3ccc(Cl)cc3)CC2)O[C@@H]2O[C@@]3(C)CC[C@H]4[C@H](C)CC[C@@H]1[C@@]24OO3 | 28.4 nM | 170 nM | –
10 | Cc1ccccc1CSC(=S)N1CCN([C@@H]2O[C@@H]3O[C@@]4(C)CC[C@H]5[C@H](C)CC[C@@H]([C@H]2C)[C@@]35OO4)CC1 | 11.4 nM | 250 nM | –
11 | C[C@H]1[C@H](N2CCN(C(=S)SCc3ccc(C#N)cc3)CC2)O[C@@H]2O[C@@]3(C)CC[C@H]4[C@H](C)CC[C@@H]1[C@@]24OO3 | 2.5 nM | 180 nM | IC50 (HCT-116): 40.2 nM; IC50 (MCF7): 13.5 nM; IC50 (DU-145): 6.3 nM; IC50 (CCD-18Co): 40.6 nM; IC50 (MCF-10A): 22.4 nM; IC50 (RWPE-1): 10.5 nM; Activity (SMMC-7721 [2]): 61.22 - 63.68%; Activity (SMMC-7721 [3]): 26.43 - 27.05%; Activity (SMMC-7721 [4]): 6.72 - 9.36%; Activity (SMMC-7721 [5]): 2.2 - 2.98%; Activity (SMMC-7721 [6]): 50.41 - 53.94%; Activity (SMMC-7721 [7]): 30.54 - 31.3%; Activity (SMMC-7721 [8]): 12.36 - 14.62%; Activity (SMMC-7721 [9]): 3.07 - 4.04%; Activity (SMMC-7721 [10]): 28.05 - 29.95%; Activity (SMMC-7721 [11]): 45.82 - 46.69%; Activity (SMMC-7721 [12]): 21.86 - 24.63%; Activity (SMMC-7721 [13]): 1.5 - 1.77%
12 | CCCCCCCCCCCCCCCCCCSC(=S)N1CCN([C@@H]2O[C@@H]3O[C@@]4(C)CC[C@H]5[C@H](C)CC[C@@H]([C@H]2C)[C@@]35OO4)CC1 | 16 nM | 130 nM | –
13 | C[C@H]1[C@@H](O)O[C@@H]2O[C@@]3(C)CC[C@H]4[C@H](C)CC[C@@H]1[C@@]24OO3 [ARTENIMOL] | > 100 nM | 360 nM | –
14 | Nc1ccn([C@@H]2O[C@H](CO)[C@@H](O)[C@@H]2O)c(=O)n1 [CYTARABINE] | 27.1 nM | 210 nM | –
15 | CC[C@]1(O)C[C@H]2CN(CCc3c([nH]c4ccccc34)[C@@](C(=O)OC)(c3cc4c(cc3OC)N(C=O)[C@H]3[C@@](O)(C(=O)OC)[C@H](OC(C)=O)[C@]5(CC)C=CCN6CC[C@]43[C@@H]65)C2)C1 [VINCRISTINE] | 10.3 nM | 60 nM | –

— ChEMBL document CHEMBL4346655, “Synthesis and biological activities of artemisinin-piperazine-dithiocarbamate derivatives” (Eur J Med Chem, 2019)
